{
  "source": "patent US9428665B2",
  "about": "“Photopolymerizable inkjet ink, ink cartridge, and inkjet recording device” (Ricoh Company, Ltd., priority 2011, dated 2016)",
  "key": {"[1]": {"conditions": "test method: the maximization method; cited from earlier work"}, "[2]": {"conditions": "cited from earlier work"}, "female mice": {"system": "female mice", "assay": "Skin sensitization test based on the LLNA (Local Lymph Node Assay), SI value by BrdU intake", "type": "in vivo", "conditions": "test substance 50.0 w/v % in acetone:olive oil 4:1, 25 μL/auricle once/day × 3 days, SI less than 3 = negative for skin sensitization", "from_the_text": "Here, the photopolymerizable monomer negative for skin sensitization refers to at least one of the following compounds (1) to (3): • (1) a compound having a Stimulation Index (SI value) of less than 3, where the Stimulation Index indicates the extent of sensitization as measured by a skin sensitization test based on the LLNA (Local Lymph Node Assay); • (2) a compound evaluated as “negative for skin sensitization” or “no skin sensitization” in its MSDS (Material Safety Data Sheet); and • (3) a compound evaluated as “negative for skin sensitization” or “without skin sensitization” in literature [e.g., Contact Dermatitis 8 223-235 (1982)]. […]\nAccording to the skin sensitization test based on the LLNA (Local Lymph Node Assay), the SI value was measured in the below described manner. […]\nBefore treated with the test substances, the positive control or the vehicle control, female mice were acclimated for 8 days including 6-day quarantine. […] Based on the body weights measured 2 days before the initiation of sensitization, they were categorized into 2 groups (4 mice/group) by the body weight stratified random sampling method so that the body weight of each individual was within ±20% of the average body weight of all the individuals. […]"}, "[3]": {"conditions": "in vivo; cited from earlier work"}, "[4]": {"conditions": "test method: OECD test guideline 406"}},
  "note": "Like-named read-outs stand apart in the source and are kept apart here.",
  "data": [
    {"molecule": "C=C(C)C(=O)OCCCCCC", "note": "[HEXYL METHACRYLATE, n-Hexyl methacrylate]", "values": [
      {"measurement": "skin sensitization evaluated in the literature", "setting": "[1]", "value": "negative"}
    ]},
    {"molecule": "C=C(C)C(=O)OC(C)(C)C", "note": "[LIGHT ESTER TB, t-Butyl methacrylate]", "values": [
      {"measurement": "skin sensitization evaluated in the literature", "setting": "[1]", "value": "negative"}
    ]},
    {"molecule": "CCC(Cc1ccccc1)(C(=O)c1ccc(N2CCOCC2)cc1)N(C)C", "note": "(centres unmarked) [Example C3, 2-Benzyl-2-dimethylamino-1-(4-morpholinophenyl)butanone-1]", "values": [
      {"measurement": "skin sensitization evaluated in the MSDS", "setting": "[2]; [4]", "value": "none"}
    ]},
    {"molecule": "CCC(Cc1ccc(C)cc1)(C(=O)c1ccc(N2CCOCC2)cc1)N(C)C", "note": "(centres unmarked) [Example C1, 2-Dimethylamino-2-(4-methylbenzyl)-1-(4-morpholin-4-yl-phenyl) butan-1-one]", "values": [
      {"measurement": "skin sensitization evaluated in the MSDS", "setting": "[2]; [4]", "value": "none"}
    ]},
    {"molecule": "Caprolactone-modified dipentaerythritol hexaacrylate [DPCA-60]", "values": [
      {"measurement": "skin sensitization evaluated in the MSDS", "setting": "[2]; in vivo", "value": "negative"}
    ]},
    {"molecule": "CSc1ccc(C(=O)C(C)(C)N2CCOCC2)cc1", "note": "[Example C2, 2-Methyl-1-[4-(methylthio)phenyl]-2-morpholinopropan-1-one]", "values": [
      {"measurement": "skin sensitization evaluated in the MSDS", "setting": "[2]; [4]", "value": "none"}
    ]},
    {"molecule": "CCc1cc(CC)c2sc3ccccc3c(=O)c2c1", "note": "[2,4-Diethylthioxanthone]", "values": [
      {"measurement": "SI value (Stimulation Index)", "setting": "female mice", "value": 1.4}
    ]},
    {"molecule": "CCCCC(CC)COC(=O)c1ccc(N(C)C)cc1", "note": "(centres unmarked) [2-ethylhexyl p-dimethylaminobenzoate]", "values": [
      {"measurement": "skin sensitization evaluated in the MSDS", "setting": "[2]; [4]", "value": "none"}
    ]},
    {"molecule": "C=COCCOCCOCCOC=C", "note": "[Example B1, Triethylene glycol divinyl ether]", "values": [
      {"measurement": "skin sensitization evaluated in the MSDS", "setting": "[2]; [4]", "value": "negative"}
    ]},
    {"molecule": "C=CC(=O)NCCO", "note": "[HEAA, Hydroxyethylacryl amide]", "values": [
      {"measurement": "skin sensitization evaluation (MSDS or literature)", "setting": "[3]", "value": "none"}
    ]},
    {"molecule": "C=C(C)C(=O)OCCCCC", "note": "[n-AMYL METHACRYLATE, n-Pentyl methacrylate]", "values": [
      {"measurement": "skin sensitization evaluated in the literature", "setting": "[1]", "value": "negative"}
    ]}
  ]
}
